Laboratory results as given in patent US5162328A, “N-[3-[2-(1H-imidazol-1-yl)ethoxy]phenyl]-4-(2-thienyl)-2-pyrimidinamine and pharmacologically acceptable salts” (American Cyanamid Company, priority 1991, dated 1992).
Where two headings read alike, the source gives them in different places.

Test: Pharmacokinetics in dogs (plasma concentration by HPLC)
Assay type: in vivo, dog (beagle)
Conditions: for AUC(0-t) / Cmax / Tmax / half-life / AUC(0-inf) / concentration at 0.5 h / concentration at 1 h / concentration at 2 h / concentration at 4 h / concentration at 7 h / concentration at 12 h: 2 mg/kg/day PO; for AUC(0-inf): read-out: AUCO- (to infinite time)
Experimental: Since dogs are used in toxicology studies of antiasthma compounds, this species is chosen for pharmacokinetic evaluations. Use of the dog permits the pharmacokinetic comparison of 2 or more compounds in the same test animal, an evaluation which could not be conveniently performed in a smaller species. For each test compound, normal dogs are given a dose of 2.0 mg/kg/day for 5 consecutive days. There is a washout period of 1 month between the study of each of the test compounds in the same four dogs. Each test compound is administered as a solution of 5 mg/ml in either 0.05 or 0.1N HCl which is dispensed into a gelatin capsule immediately prior to dosage.
Heparinized blood samples are obtained from each animal on the first, third and fifth day of dosage at 0.5, 1.0, 2.0, 4.0, 7.0, 12.0 and 24.0 hours after the dose. The samples are centrifuged immediately to obtain plasma which is frozen until analyzed.
Analysis of plasma is performed using High Performance Liquid Chromatography (HPLC). The analytical procedure is essentially identical for each compound. The internal standard used for N-[3-[2-(1H-imidazol-1-yl)ethoxy]phenyl]-4-(2-thienyl)2-pyrimidinamine is 2-chloro-11-(4-methyl-1-piperazinyl)dibenz[b,f][1,4]oxazepine succinate, while for 2-methyl-N^4 -[4-(4-pyridinyl)-2-pyrimidinyl]-1,4-benzenediamine dihydrochloride and N-[4-[2-(diethylamino)ethoxy]phenyl]-4-(4-pyridinyl)-2-pyrimidnamine dihydrochloride the internal standard is 7-ethoxy-coumarin. In a typical procedure, a 0.4 ml volume of acetonitrile containing internal standard is added a 0.2 ml volume of serum. The sample is mixed by vortexing and centrifuged. The clear protein free supernatent fluid is decanted into a clean tube and evaporated to dryness. The dry residue is dissolved in 0.2 ml of HPLC mobile phase and 50 ul of this solution injected. Peaks corresponding to the test compound being measured and to the internal standard compound are quantitated by their absorption of ultraviolet light at 280 nm. Each set of analytical samples is accompanied by the analysis of a group of standard dog plasma samples prepared to contain amounts of the compound being measured which encompasses the concentration range of the samples.
Four normal beagle dogs weighing between 9.2 and 10.2 Kg are used in the study.

[1] = dog, plasma, po, 2 mg/kg/day, Dog 3, day 3
[2] = dog, plasma, po, 2 mg/kg/day, Dog 3, day 5
[3] = dog, plasma, po, 2 mg/kg/day, Dog 4, day 1
[4] = dog, plasma, po, 2 mg/kg/day, Dog 4, day 3
[5] = dog, plasma, po, 2 mg/kg/day, Dog 4, day 5
[6] = dog, plasma, po, 2 mg/kg/day, Mean, day 1
[7] = dog, plasma, po, 2 mg/kg/day, Mean, day 3
[8] = dog, plasma, po, 2 mg/kg/day, Mean, day 5

## c1cc(Nc2nccc(-c3cccs3)n2)cc(OCCn2ccnc2)c1 [N-[3-[2-(1H-imidazol-1-yl)ethoxy]phenyl]-4-(2-thienyl)-2-pyrimidinamine]
[1]
  AUC(0-t): 799 ng·h/mL
  Cmax: 350 ng/mL
  Tmax: 1 h
  half-life: 1.62 h
  AUC(0-inf): 955 ng·h/mL
dog, plasma, po, 2 mg/kg/day, Dog 3, day 5, 0.5 h
  concentration at 0.5 h: < 30 ng/mL
dog, plasma, po, 2 mg/kg/day, Dog 3, day 5, 1 h
  concentration at 1 h: 272 ng/mL
dog, plasma, po, 2 mg/kg/day, Dog 3, day 5, 2 h
  concentration at 2 h: 233 ng/mL
dog, plasma, po, 2 mg/kg/day, Dog 3, day 5, 4 h
  concentration at 4 h: 114 ng/mL
dog, plasma, po, 2 mg/kg/day, Dog 3, day 5, 7 h
  concentration at 7 h: < 30 ng/mL
dog, plasma, po, 2 mg/kg/day, Dog 3, day 5, 12 h
  concentration at 12 h: < 30 ng/mL
[2]
  AUC(0-t): 682 ng·h/mL
  Cmax: 272 ng/mL
  Tmax: 1 h
  half-life: 1.94 h
  AUC(0-inf): 978 ng·h/mL
dog, plasma, po, 2 mg/kg/day, Dog 4, day 1, 0.5 h
  concentration at 0.5 h: 173 ng/mL
dog, plasma, po, 2 mg/kg/day, Dog 4, day 1, 1 h
  concentration at 1 h: 364 ng/mL
dog, plasma, po, 2 mg/kg/day, Dog 4, day 1, 2 h
  concentration at 2 h: 325 ng/mL
dog, plasma, po, 2 mg/kg/day, Dog 4, day 1, 4 h
  concentration at 4 h: 172 ng/mL
dog, plasma, po, 2 mg/kg/day, Dog 4, day 1, 7 h
  concentration at 7 h: 40 ng/mL
dog, plasma, po, 2 mg/kg/day, Dog 4, day 1, 12 h
  concentration at 12 h: < 30 ng/mL
[3]
  AUC(0-t): 1340 ng·h/mL
  Cmax: 364 ng/mL
  Tmax: 1 h
  half-life: 1.64 h
  AUC(0-inf): 1440 ng·h/mL
dog, plasma, po, 2 mg/kg/day, Dog 4, day 3, 0.5 h
  concentration at 0.5 h: 65 ng/mL
dog, plasma, po, 2 mg/kg/day, Dog 4, day 3, 1 h
  concentration at 1 h: 220 ng/mL
dog, plasma, po, 2 mg/kg/day, Dog 4, day 3, 2 h
  concentration at 2 h: 144 ng/mL
dog, plasma, po, 2 mg/kg/day, Dog 4, day 3, 4 h
  concentration at 4 h: 38 ng/mL
dog, plasma, po, 2 mg/kg/day, Dog 4, day 3, 7 h
  concentration at 7 h: < 30 ng/mL
dog, plasma, po, 2 mg/kg/day, Dog 4, day 3, 12 h
  concentration at 12 h: < 30 ng/mL
[4]
  AUC(0-t): 452 ng·h/mL
  Cmax: 220 ng/mL
  Tmax: 1 h
  half-life: 1.61 h
  AUC(0-inf): 551 ng·h/mL
dog, plasma, po, 2 mg/kg/day, Dog 4, day 5, 0.5 h
  concentration at 0.5 h: < 30 ng/mL
dog, plasma, po, 2 mg/kg/day, Dog 4, day 5, 1 h
  concentration at 1 h: 191 ng/mL
dog, plasma, po, 2 mg/kg/day, Dog 4, day 5, 2 h
  concentration at 2 h: 197 ng/mL
dog, plasma, po, 2 mg/kg/day, Dog 4, day 5, 4 h
  concentration at 4 h: 71 ng/mL
dog, plasma, po, 2 mg/kg/day, Dog 4, day 5, 7 h
  concentration at 7 h: < 30 ng/mL
dog, plasma, po, 2 mg/kg/day, Dog 4, day 5, 12 h
  concentration at 12 h: < 30 ng/mL
[5]
  AUC(0-t): 510 ng·h/mL
  Cmax: 197 ng/mL
  Tmax: 2 h
  AUC(0-inf): 694 ng·h/mL
dog, plasma, po, 2 mg/kg/day, Mean of 4 dogs, day 1, 0.5 h
  concentration at 0.5 h: 235 ng/mL
dog, plasma, po, 2 mg/kg/day, Mean of 4 dogs, day 1, 1 h
  concentration at 1 h: 405 ng/mL
dog, plasma, po, 2 mg/kg/day, Mean of 4 dogs, day 1, 2 h
  concentration at 2 h: 318 ng/mL
dog, plasma, po, 2 mg/kg/day, Mean of 4 dogs, day 1, 4 h
  concentration at 4 h: 188 ng/mL
dog, plasma, po, 2 mg/kg/day, Mean of 4 dogs, day 1, 7 h
  concentration at 7 h: 52 ng/mL
dog, plasma, po, 2 mg/kg/day, Mean of 4 dogs, day 1, 12 h
  concentration at 12 h: < 30 ng/mL
dog, plasma, po, 2 mg/kg/day, Mean of 4 dogs, day 3, 0.5 h
  concentration at 0.5 h: 89 ng/mL
dog, plasma, po, 2 mg/kg/day, Mean of 4 dogs, day 3, 1 h
  concentration at 1 h: 225 ng/mL
dog, plasma, po, 2 mg/kg/day, Mean of 4 dogs, day 3, 2 h
  concentration at 2 h: 148 ng/mL
dog, plasma, po, 2 mg/kg/day, Mean of 4 dogs, day 3, 4 h
  concentration at 4 h: 33 ng/mL
dog, plasma, po, 2 mg/kg/day, Mean of 4 dogs, day 3, 7 h
  concentration at 7 h: < 30 ng/mL
dog, plasma, po, 2 mg/kg/day, Mean of 4 dogs, day 3, 12 h
  concentration at 12 h: < 30 ng/mL
dog, plasma, po, 2 mg/kg/day, Mean of 4 dogs, day 5, 0.5 h
  concentration at 0.5 h: 106 ng/mL
dog, plasma, po, 2 mg/kg/day, Mean of 4 dogs, day 5, 1 h
  concentration at 1 h: 276 ng/mL
dog, plasma, po, 2 mg/kg/day, Mean of 4 dogs, day 5, 2 h
  concentration at 2 h: 212 ng/mL
dog, plasma, po, 2 mg/kg/day, Mean of 4 dogs, day 5, 4 h
  concentration at 4 h: 82 ng/mL
dog, plasma, po, 2 mg/kg/day, Mean of 4 dogs, day 5, 7 h
  concentration at 7 h: < 30 ng/mL
dog, plasma, po, 2 mg/kg/day, Mean of 4 dogs, day 5, 12 h
  concentration at 12 h: < 30 ng/mL
[6]
  AUC(0-t): 1380 ng·h/mL
  Cmax: 405 ng/mL
  Tmax: 1 h
  half-life: 2.27 h
  AUC(0-inf): 1620 ng·h/mL
[7]
  AUC(0-t): 444 ng·h/mL
  Cmax: 225 ng/mL
  Tmax: 1 h
  half-life: 1.47 h
  AUC(0-inf): 595 ng·h/mL
[8]
  AUC(0-t): 659 ng·h/mL
  Cmax: 277 ng/mL
  Tmax: 1.25 h
  half-life: 1.5 h
  AUC(0-inf): 871 ng·h/mL
dog, plasma, po, 2 mg/kg/day, derived from mean of half-life values, read-out: elimination constant (converted)
  k el: 0.000107 s⁻¹
dogs, compared with the two compounds of U.S. Pat. No. 4,788,195
  plasma half-life (in words): increased plasma half-life and reproducibility
